We go through 35 compounds from ChEMBL document CHEMBL1137964, “Synthesis and biological evaluation of 6-aryl-6H-pyrrolo[3,4-d]pyridazine derivatives: high-affinity ligands to the alpha 2 delta subunit of voltage gated calcium channels” (Bioorg Med Chem Lett, 2004).

Some results are limits rather than exact numbers.

In data set [1] the target is Voltage-dependent calcium channel subunit alpha-2/delta-1 (Homo sapiens, UniProt P54289). The data set is described as follows: Binding affinity for huamn alpha2-delta1 subunit of voltage gated calcium channel over-expressed in A710 cell membranes using [3H]-gabapentin.
Voltage-dependent calcium channel subunit alpha-2/delta-1, sequence (P54289 25-956 limits assumed): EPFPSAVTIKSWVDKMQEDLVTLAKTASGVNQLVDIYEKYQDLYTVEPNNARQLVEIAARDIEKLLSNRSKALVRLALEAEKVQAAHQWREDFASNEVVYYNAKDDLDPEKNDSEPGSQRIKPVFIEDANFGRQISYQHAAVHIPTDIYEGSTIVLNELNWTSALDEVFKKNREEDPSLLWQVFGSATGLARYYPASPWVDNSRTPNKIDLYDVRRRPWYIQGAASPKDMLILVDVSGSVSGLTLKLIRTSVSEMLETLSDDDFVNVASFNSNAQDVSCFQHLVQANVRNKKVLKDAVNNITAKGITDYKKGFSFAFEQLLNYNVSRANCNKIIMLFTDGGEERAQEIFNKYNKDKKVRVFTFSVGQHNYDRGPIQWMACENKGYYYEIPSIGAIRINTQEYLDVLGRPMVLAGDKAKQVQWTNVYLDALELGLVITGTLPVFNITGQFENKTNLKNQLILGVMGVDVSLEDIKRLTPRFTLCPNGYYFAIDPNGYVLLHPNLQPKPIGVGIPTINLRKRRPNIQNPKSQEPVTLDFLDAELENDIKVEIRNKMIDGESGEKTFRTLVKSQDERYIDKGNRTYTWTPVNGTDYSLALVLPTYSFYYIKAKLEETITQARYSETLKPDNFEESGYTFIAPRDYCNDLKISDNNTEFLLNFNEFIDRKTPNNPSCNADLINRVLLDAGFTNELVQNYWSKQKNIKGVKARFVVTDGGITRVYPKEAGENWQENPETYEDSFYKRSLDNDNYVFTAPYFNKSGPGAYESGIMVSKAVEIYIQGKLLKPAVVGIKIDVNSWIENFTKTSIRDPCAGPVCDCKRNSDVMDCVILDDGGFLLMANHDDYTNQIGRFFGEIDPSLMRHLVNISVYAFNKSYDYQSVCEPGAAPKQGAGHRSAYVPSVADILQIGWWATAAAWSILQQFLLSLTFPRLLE
Voltage-dependent calcium channel subunit alpha-2/delta-1, sequence (P54289 957-1103 limits assumed): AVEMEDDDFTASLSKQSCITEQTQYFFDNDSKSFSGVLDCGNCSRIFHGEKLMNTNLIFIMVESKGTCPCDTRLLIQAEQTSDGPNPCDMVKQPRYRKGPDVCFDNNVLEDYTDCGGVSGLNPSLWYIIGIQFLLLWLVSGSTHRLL
Data set [2] can be described thus: Plasma clearance rate was determined in rats at 2 mg/kg, i.v. dose. The class given is ADME, organism-based. Also on record: dose 2 mg/kg, route intravenous. The note with it: rat, iv, read-out: Clp.
Data set [3] is described as follows: Plasma concentration was determined in rats at 20 mg/kg, i.p. dose. The conditions noted are these: rat, ip. Also on record: dose 20 mg/kg, route intraperitoneal. It is filed as ADME, organism-based.
Data set [4] can be described thus: Plasma concentration was determined in rats at 10 mg/kg, p.o. dose. It is filed as ADME, organism-based. Also on record: dose 10 mg/kg, route oral. The conditions noted are these: rat, po.
The test system of data set [5] is Rattus norvegicus. The data set is described as follows: Time required by compound for reaching maximum plasma concentration was determined in rats at 10 mg/kg, p.o. dose. The class given is ADME, organism-based. Also on record: dose 10 mg/kg, route oral. The note with it: in vivo, po.
A short description of data set [6]: Bioavailability was determined in rats at 10 mg/kg, p.o. dose. The class given is ADME, organism-based. The conditions noted are these: rat, in vivo, po.
Data set [7] is described as follows: Maximum plasma concentration in rats at 10 mg/kg, p.o. dose. The class given is ADME, organism-based. Also on record: dose 10 mg/kg, route oral. The conditions noted are these: rat, po.
A short description of data set [8]: Volume of distribution at steady state was determined in rats at 2 mg/kg, i.v. dose. It is filed as ADME, organism-based. Set-up: dose 2 mg/kg, route intravenous. The note with it: rat, in vivo, iv, read-out: Vdss.
Data set [9] can be described thus: Plasma concentration was determined in rats at 2 mg/kg, i.v. dose. The class given is ADME, organism-based. Also on record: dose 2 mg/kg, route intravenous. The conditions noted are these: rat, iv.
Data set [10] is described as follows: Maximum plasma concentration in rats at 20mg/kg, i.p. dose. The conditions noted are these: rat, ip. It is filed as ADME, organism-based. Set-up: dose 20 mg/kg, route intraperitoneal.
The nature of data set [11]: Half-life period was determined in rats at 10 mg/kg, p.o. dose. It is filed as ADME, organism-based. Also on record: dose 10 mg/kg, route oral. The note with it: rat, in vivo, po.
Data set [12] relates to Rattus norvegicus. The data set can be described thus: Time required by compound for reaching maximum plasma concentration was determined in rats at 20 mg/kg, i.p. dose. It is filed as ADME, organism-based. Set-up: dose 20 mg/kg, route intraperitoneal. The conditions noted are these: in vivo, ip.
A short description of data set [13]: Half-life period was determined in rats at 20 mg/kg, i.p. dose. It is filed as ADME, organism-based. Set-up: dose 20 mg/kg, route intraperitoneal. The note with it: rat, in vivo, ip.
Data set [14] is described as follows: Half-life period was determined in rats at 2 mg/kg, i.v. dose. It is filed as ADME, organism-based. The note with it: rat, in vivo, iv. Set-up: dose 2 mg/kg, route intravenous.

Usually IC50 stands for the concentration needed to halve the response being measured. As for `CCOc1ccc(-n2c(C)c3c(C)nnc(-c4ccc(OC)cc4OC)c3c2C)cc1`, the IC50 in data set [1] amounted to 597 nM.

Consider `CCOc1ccc(-n2c(C)c3c(C)nnc(-c4ccc(Cl)cc4)c3c2C)cc1`, for which the IC50 in [1] amounted to 701 nM.

For `CCOc1ccc(-n2c(C)c3c(C)nnc(CC(C)CC(C)(C)C)c3c2C)cc1` (stereo not drawn), the IC50 in [1] was determined as 577 nM.

Regarding `CCOc1ccc(-n2c(C)c3c(C)nnc(-c4ccc(C)cc4)c3c2C)cc1`, the IC50 in data set [1] came to 86 nM.

In the case of `CCOc1ccc(-n2c(C)c3c(C)nnc(CC(C)C)c3c2C)cc1`, the IC50 in data set [1] was determined as 171 nM.

For the compound `CCOc1ccc(-n2c(C)c3c(C)nnc(C4CC4)c3c2C)cc1`, the IC50 in data set [1] came out at 170 nM.

Usually AUC stands for concentration integrated over time. A higher AUC goes with more exposure. What is called bioavailability is the share of a dose that reaches the circulation, judged against a reference dose that is usually intravenous. Low values mean little systemic uptake, high ones much systemic uptake. The term Cmax denotes the highest concentration seen after dosing. One may read the half-life as the time needed for the level to fall by half in the phase considered. Read a low half-life as fast loss. Consider `CCOc1ccc(-n2c(C)c3c(C)nnc(C)c3c2C)cc1`, for which, in data set [2], the clearance stood at 18.5 mL/min/kg. Also, the AUC in data set [3] came out at 141 µM·h; in [4], 27 µM·h; in [9], 6.4 µM·h. For the same compound, the T max was 2.8 h with Rattus norvegicus [5] and 18 min with Rattus norvegicus [12]. The compound further had a bioavailability in data set [6] of 81%. Also, the Cmax was determined as 3.6 µM in data set [7] and 101 µM in data set [10]. In addition, the Vd in data set [8] came out at 1.3 L/kg. For the same compound, the IC50 in [1] amounted to 180 nM. Besides, the half-life in data set [11] was 270 min; in data set [13], 72 min; in data set [14] it was 54.6 min.

As for `CCOc1ccc(-c2nnc(C)c3c(C)n(-c4ccc(OCC)cc4)c(C)c23)cc1`, the IC50 in [1] came to 153 nM.

As for `CCOc1ccc(-n2c(C)c3c(C)nnc(-c4ccccc4OC)c3c2C)cc1`, the IC50 in data set [1] worked out at 737 nM.

Turning to `CCOc1ccc(-n2c(C)c3c(C)nnc(-c4ccc(F)cc4)c3c2C)cc1`, in data set [1], the IC50 was 528 nM.

`COc1ccc(-n2c(C)c3c(C)nnc(C)c3c2C)cc1`: in data set [1], the IC50 is above 10000 nM.

As to `CCOc1ccc(-n2c(C)c3c(C)nnc(Nc4ccccc4)c3c2C)cc1`, the IC50 in [1] was determined as 75 nM.

Turning to `CCOc1ccc(-n2c(C)c3c(C)nnc(CC4CCCC4)c3c2C)cc1`, the 50% inhibitory concentration (IC50) in data set [1] was found to be 211 nM.

Take `CCOc1ccc(-n2c(C)c3c(C)nnc(OC)c3c2C)cc1`: the IC50 in [1] was found to be 2180 nM.

Regarding `CCOc1ccc(-n2c(C)c3c(C)nnc(C4CCCCC4)c3c2C)cc1`, the IC50 in [1] was found to be 235 nM.

Consider `CCOc1ccc(-n2c(C)c3c(C)nnc(Nc4ccc(N)cc4)c3c2C)cc1`, for which the IC50 in data set [1] was above 10000 nM.

Regarding `CCOc1ccc(-n2c(C)c3c(C)nnc(-c4ccc(OC(F)(F)F)cc4)c3c2C)cc1`, in data set [1], the IC50 was 1730 nM.

As to `CCOc1ccc(-n2c(C)c3c(C)nnc(-c4ccc(CC)cc4)c3c2C)cc1`, the IC50 in data set [1] was 107 nM.

Turning to `CCOc1ccc(-n2c(C)c3c(C)nnc(-c4ccccc4)c3c2C)cc1`, the IC50 in [1] is 382 nM.

`CCOc1ccc(-n2c(C)c3c(C)nnc(NC)c3c2C)cc1`: in data set [1], the IC50 was found to be 40 nM.

On to `CCOc1ccc(-n2c(C)c3c(C)nnc(-c4ccccc4Cl)c3c2C)cc1`, for which the IC50 in [1] is 4370 nM.

As for `CCOc1ccc(-n2c(C)c3c(C)nnc(-c4cccc(Cl)c4)c3c2C)cc1`, in data set [1], the IC50 was found to be 1600 nM.

For `CCOc1cccc(-n2c(C)c3c(C)nnc(C)c3c2C)c1`, the IC50 in data set [1] is above 10000 nM.

`CCOc1ccc(-n2c(C)c3c(C)nnc(Nc4ccc(C)cc4)c3c2C)cc1`: in data set [1], the IC50 is 240 nM.

Consider `CCOc1ccc(-n2c(C)c3c(C)nnc(Nc4ccncc4)c3c2C)cc1`, for which the IC50 in data set [1] is above 10000 nM.

On to `CCOc1ccc(-n2c(C)c3c(C)nnc(-c4cccc(OC)c4)c3c2C)cc1`, for which the IC50 in data set [1] worked out at 335 nM.

Regarding `CCCCCc1nnc(C)c2c(C)n(-c3ccc(OCC)cc3)c(C)c12`, the IC50 in data set [1] came out at 360 nM.

Regarding `CCOc1ccc(-n2c(C)c3c(C)nnc(C4CCCC4)c3c2C)cc1`, the IC50 in [1] turned out to be 185 nM.

`CCOc1ccc(-n2c(C)c3c(C)nnc(CCC4CCCC4)c3c2C)cc1`: in data set [1], the concentration for half-maximal inhibition (IC50) amounted to 148 nM.

`CCOc1ccc(-n2c(C)c3c(C)nnc(-c4ccc(-c5ccccc5)cc4)c3c2C)cc1`: the IC50 in [1] came out at 1260 nM.

`CCOc1ccc(-n2c(C)c3c(C)nnc(Nc4ccc(OC)cc4)c3c2C)cc1`: in [1], the IC50 was 440 nM.

As to `CCOc1ccc(-n2c(C)c3c(C)nnc(CCC(C)C)c3c2C)cc1`, in [1], the IC50 was determined as 263 nM.

As for `CCOc1ccc(-n2c(C)c3c(C)nnc(CC)c3c2C)cc1`, the IC50 in [1] stood at 250 nM.

As to `CCOc1ccccc1-n1c(C)c2c(C)nnc(C)c2c1C`, the IC50 in data set [1] was 1850 nM.

`CCOc1ccc(-n2c(C)c3c(C)nnc(N(C)C)c3c2C)cc1`: the IC50 in data set [1] amounted to 170 nM.
